Test results from the supplement of paper PMC11061612.

Key:
[1] = system: BFTC-905 (Bladder Carcinoma); test: Bliss excess, mean over the matrix (fraction); higher = more synergy
Summary of the method: (§1)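 Cell lines grown in DMEM/F12 or RPMI with 10% FBS were plated in 1536-well plates and held 24 hours at 37°C, 5% CO2 before 72 hours of exposure to two-drug dose matrices, with DMSO typically at 0.2%. CellTiter-Glo 2.0 luminescence gave viability, which was converted to inhibition. Vehicle wells were set to 0 and blank wells to 1. Combination Emax is the second-highest inhibition in the matrix, and Bliss excess is the observed combination effect minus the expected EA + EB − EA·EB, where EA and EB are the single-agent effects.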

[2] = system: BL-41 (Burkitt's Lymphoma); test: as above
Summary of the method: as §1

[3] = system: CAMA-1 (Breast Carcinoma); test: as above
Summary of the method: as §1

[4] = system: DND-41 (T-Lymphoblastic Leukemia); test: as above
Summary of the method: as §1

[5] = system: ES1 (Ewing's Sarcoma); test: as above
Summary of the method: as §1

[6] = system: ES8 (Ewing's Sarcoma); test: as above
Summary of the method: as §1

[7] = system: GR-ST (B-Lymphoblastic Leukemia); test: as above
Summary of the method: as §1

[8] = system: K-562 (Chronic Myelogenous Leukemia); test: as above
Summary of the method: as §1

[9] = system: L-540 (Hodgkin's Lymphoma); test: as above
Summary of the method: as §1

[10] = system: MKN28 (Gastric Carcinoma); test: as above
Summary of the method: as §1

[11] = system: NCI-H1792 (Lung Adenocarcinoma); test: as above
Summary of the method: as §1

[12] = system: NCI-H2818 (Mesothelioma); test: as above
Summary of the method: as §1

[13] = system: SR (Other Blood Carcinomas); test: as above
Summary of the method: as §1

[14] = system: SW1417 (Colorectal Carcinoma); test: as above
Summary of the method: as §1

[15] = system: SW837 (Colorectal Carcinoma); test: as above
Summary of the method: as §1

[16] = system: TC-71 (Ewing's Sarcoma); test: as above
Summary of the method: as §1

[17] = system: TE-6 (Esophageal Squamous Cell Carcinoma); test: as above
Summary of the method: as §1

[18] = system: U251 (Low Grade Glioma); test: as above
Summary of the method: as §1

[19] = system: WIL2-NS (Non-Cancerous); test: as above
Summary of the method: as §1

[20] = system: WM-115 (Melanoma); test: as above
Summary of the method: as §1

[21] = system: BFTC-905 (Bladder Carcinoma); test: combination Emax (second highest fraction inhibited in the dose matrix, 72 h); higher = more inhibition; extreme values may be limits of the assay
Summary of the method: as §1

[22] = system: BL-41 (Burkitt's Lymphoma); test: as above
Summary of the method: as §1

[23] = system: CAMA-1 (Breast Carcinoma); test: as above
Summary of the method: as §1

[24] = system: DND-41 (T-Lymphoblastic Leukemia); test: as above
Summary of the method: as §1

[25] = system: ES1 (Ewing's Sarcoma); test: as above
Summary of the method: as §1

[26] = system: ES8 (Ewing's Sarcoma); test: as above
Summary of the method: as §1

[27] = system: GR-ST (B-Lymphoblastic Leukemia); test: as above
Summary of the method: as §1

[28] = system: K-562 (Chronic Myelogenous Leukemia); test: as above
Summary of the method: as §1

[29] = system: L-540 (Hodgkin's Lymphoma); test: as above
Summary of the method: as §1

[30] = system: MKN28 (Gastric Carcinoma); test: as above
Summary of the method: as §1

[31] = system: NCI-H1792 (Lung Adenocarcinoma); test: as above
Summary of the method: as §1

[32] = system: NCI-H2818 (Mesothelioma); test: as above
Summary of the method: as §1

[33] = system: SR (Other Blood Carcinomas); test: as above
Summary of the method: as §1

[34] = system: SW1417 (Colorectal Carcinoma); test: as above
Summary of the method: as §1

[35] = system: SW837 (Colorectal Carcinoma); test: as above
Summary of the method: as §1

[36] = system: TC-71 (Ewing's Sarcoma); test: as above
Summary of the method: as §1

[37] = system: TE-6 (Esophageal Squamous Cell Carcinoma); test: as above
Summary of the method: as §1

[38] = system: U251 (Low Grade Glioma); test: as above
Summary of the method: as §1

[39] = system: WIL2-NS (Non-Cancerous); test: as above
Summary of the method: as §1

[40] = system: WM-115 (Melanoma); test: as above
Summary of the method: as §1
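Throughout, for Bliss excess, mean over the matrix: after 72 h of two-drug dosing.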

Compound | Bliss excess [1] | Bliss excess [2] | Bliss excess [3] | Bliss excess [4] | Bliss excess [5] | Bliss excess [6] | Bliss excess [7] | Bliss excess [8] | Bliss excess [9] | Bliss excess [10] | Bliss excess [11] | Bliss excess [12] | Bliss excess [13] | Bliss excess [14] | Bliss excess [15] | Bliss excess [16] | Bliss excess [17] | Bliss excess [18] | Bliss excess [19] | Bliss excess [20] | combination Emax [21] | combination Emax [22] | combination Emax [23] | combination Emax [24] | combination Emax [25] | combination Emax [26] | combination Emax [27] | combination Emax [28] | combination Emax [29] | combination Emax [30] | combination Emax [31] | combination Emax [32] | combination Emax [33] | combination Emax [34] | combination Emax [35] | combination Emax [36] | combination Emax [37] | combination Emax [38] | combination Emax [39] | combination Emax [40]
CS(=O)(=O)CCNCc1ccc(-c2ccc3ncnc(Nc4ccc(OCc5cccc(F)c5)c(Cl)c4)c3c2)o1 [Lapatinib] + NC1(c2ccc(-c3nc4ccn5c(=O)[nH]nc5c4cc3-c3ccccc3)cc2)CCC1 [MK-2206] (first compound max 10 µM, 7x7, partner max 10 µM) | 0.0323 | 0.0176 | 0.0301 | 0.0377 | 0.0341 | -0.004 | -0.0298 | -0.0367 | -0.0209 | -0.0445 | 0.0243 | -0.0155 | 0.0147 | 0.0395 | 0.0106 | -0.0342 | -0.0159 | -0.0083 | 0.0569 | -0.0093 | 0.888 | 0.942 | 0.909 | 0.946 | 0.97 | 0.851 | 0.981 | 0.602 | 0.918 | 0.687 | 0.785 | 0.351 | 0.819 | 0.459 | 0.633 | 0.589 | 0.816 | 0.454 | 0.674 | 0.855
O=C(c1cc(Cc2n[nH]c(=O)c3ccccc23)ccc1F)N1CCN(C(=O)C2CC2)CC1 [Olaparib] + CC1(C)CCC(CN2CCN(c3ccc(C(=O)NS(=O)(=O)c4ccc(NCC5CCOCC5)c([N+](=O)[O-])c4)c(Oc4cnc5[nH]ccc5c4)c3)CC2)=C(c2ccc(Cl)cc2)C1 [Venetoclax] (first compound max 10 µM, 7x7, partner max 1 µM) | -0.0334 | 0.0183 | -0.0106 | 0.0243 | 0.0271 | -0.0224 | -0.0349 | -0.0133 | 0.0188 | -0.0514 | -0.0302 | -0.0238 | 0.0961 | -0.0223 | -0.0548 |  |  |  | 0.0261 | -0.052 | 0.193 | 0.318 | 0.211 | 0.29 | 0.841 | 0.964 | 0.526 | 0.172 | 0.558 | 0.105 | 0.109 | 0.158 | 0.567 | 0.124 | 0.112 |  |  |  | 0.46 | 0.241
Cc1c2c(nn1C)CSCc1cc(n(C)n1)CSc1cc(c3ccccc3c1)OCCCc1c(C(=O)O)n(C)c3c-2c(Cl)ccc13 [AZD5991] + Nc1ccn([C@@H]2O[C@H](CO)[C@@H](O)C2(F)F)c(=O)n1 [Gemcitabine] (first compound max 1 µM, 7x7, partner max 0.3 µM) | -0.0194 | -0.0263 | 0.133 | 0.021 | 0.0102 | -0.0121 | -0.0516 | 0.0045 | 0.0162 | -0.0367 | -0.0308 | -0.0771 | 0.0073 | 0.0394 | -0.0606 |  |  |  | -0.0263 | -0.0572 | 0.909 | 1 | 0.942 | 0.848 | 1 | 1 | 0.791 | 0.222 | 1 | 0.161 | 0.774 | 0.358 | 0.991 | 0.332 | 0.273 |  |  |  | 0.942 | 0.431
